Source: US20240174618A1, “SUBSTITUTED (2-HETEROARYLOXYPHENYL)SULFONATES, SALTS THEREOF AND THEIR USE AS HERBICIDAL AGENTS” (Bayer Aktiengesellschaft, priority 2021, published 2024)

What was measured:
Assay type in all cases: in vivo
[1] = tested on: Abutilon theophrasti (ABUTH); experiment: B. Herbicidal post-emergence efficacy, ABUTH; conditions: rated visually after about 3 weeks
Summary of the method: (§1)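 Visual percent efficacy relative to untreated controls (0% unaffected, 100% dead), scored roughly 3 weeks after foliar spraying of one-leaf-stage pot-grown plants with WP or EC preparations at application rates up to 1280 g/ha in 600 L/ha water containing 0.5% additive.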

Setaria viridis (SETVI) = experiment: B. Herbicidal post-emergence efficacy, SETVI
Summary of the method: as §1

Stellaria media (STEME) = experiment: B. Herbicidal post-emergence efficacy, STEME
Summary of the method: as §1

[2] = tested on: Echinochloa crus-galli (ECHCG); experiment: C. Herbicidal pre-emergence efficacy, ECHCG; conditions: scored after about 3 weeks
Description: (§2) Seeds of monocotyledonous and dicotyledonous weed plants and crop plants were placed in plastic or organic planting pots and covered with soil. The compounds of the invention, formulated in the form of wettable powders (WP) or as emulsion concentrates (EC), were then applied to the surface of the covering soil as aqueous suspension or emulsion with addition of 0.5% additive at a water application rate equivalent to 600 l/ha (converted). After the treatment, the pots were placed in a greenhouse and kept under good growth conditions for the test plants. After about 3 weeks, the efficacy of the preparations was scored visually in comparison with untreated controls as percentages. For example, • 100% efficacy=plants have died, • 0% efficacy=like untreated control plants.
(§3) Tables C1a to C14b below show the effects of selected compounds of the general formula (I) according to table 1 on various harmful plants at an application rate corresponding to 320 g/ha or less, which were obtained by the experimental procedure mentioned above.

[3] = tested on: Polygonum convolvulus (POLCO); experiment: C. Herbicidal pre-emergence efficacy, POLCO; conditions: scored after about 3 weeks
Description: as §2, §3

[4] = tested on: Pharbitis purpurea (PHBPU); experiment: E. Herbicidal post-emergence efficacy, PHBPU
Summary of the method: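 Compounds applied at 320 g/ha or less as a foliar spray (600 l/ha, 0.5% additive) to one-leaf-stage greenhouse plants grown in sandy loam. Damage is visually scored in percent relative to untreated plants after about 3 weeks.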

[5] = tested on: Digitaria sanguinalis (DIGSA); experiment: B. Herbicidal post-emergence efficacy, DIGSA; conditions: rated visually after about 3 weeks
Summary of the method: as §1

Kochia scoparia (KCHSC) = experiment: C. Herbicidal pre-emergence efficacy, KCHSC
Summary of the method: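 Pre-emergence test: formulated compounds sprayed as aqueous suspension or emulsion with 0.5% additive at 600 l/ha onto soil covering sown seeds, at rates corresponding to 320 g/ha or less. After about 3 weeks in greenhouse, efficacy scored visually as percent versus untreated controls (100% = plants dead).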

SMILES	Post-emergence efficacy against ABUTH in % ([1]; 80 g/ha) [%]	Post-emergence efficacy against ABUTH in % ([1]; 320 g/ha) [%]	Post-emergence efficacy against ABUTH in % ([1]; 1280 g/ha) [%]	Post-emergence efficacy against SETVI (Setaria viridis (SETVI); 320 g/ha) [%]	Post-emergence efficacy against SETVI (Setaria viridis (SETVI); 1280 g/ha) [%]	Post-emergence efficacy against STEME (Stellaria media (STEME); 80 g/ha) [%]	Post-emergence efficacy against STEME (Stellaria media (STEME); 320 g/ha) [%]	Post-emergence efficacy against STEME (Stellaria media (STEME); 1280 g/ha) [%]	Pre-emergence efficacy against ECHCG ([2]; 80 g/ha) [%]	Pre-emergence efficacy against ECHCG ([2]; 320 g/ha) [%]	Pre-emergence efficacy against POLCO ([3]; 80 g/ha) [%]	Pre-emergence efficacy against POLCO ([3]; 320 g/ha) [%]	Post-emergence efficacy against PHBPU in % ([4]; application rate 320 g/ha) [%]	Post-emergence efficacy against PHBPU in % ([4]; application rate 80 g/ha) [%]	Post-emergence efficacy against DIGSA in % ([5]; 320 g/ha) [%]	Post-emergence efficacy against DIGSA in % ([5]; 1280 g/ha) [%]	Pre-emergence efficacy against KCHSC in % (Kochia scoparia (KCHSC); application rate 80 g/ha) [%]	Pre-emergence efficacy against KCHSC in % (Kochia scoparia (KCHSC); application rate 320 g/ha) [%]
O=S(=O)(CCCCl)Oc1ccccc1Oc1ncc(F)cn1 [Example I-5]	90	100	100	90	100	100	100	100	100	100	90	100	80					
CCCCS(=O)(=O)Oc1ccccc1Oc1ncc(Cl)cn1 [Example I-6]		90	90		90		90	90	100	100	90	90	100	80				
CC(C)CS(=O)(=O)Oc1ccccc1Oc1ncc(Cl)cn1 [Example I-7, [2-(5-Chloropyrimidin-2-yl)oxyphenyl] 2-methylpropane-1-sulfonate]		90	90		90		90	90	100	100	90	100	90					
O=S(=O)(CCCC(F)(F)F)Oc1ccccc1Oc1ncc(Cl)cn1 [Example I-10]	90	90	90	100	100	90	90	100	100	100	90	100	100	100				
O=S(=O)(CCCCl)Oc1c(F)cccc1Oc1ncc(Cl)cn1 [Example I-14]	90	100	100	90	100	100	100	100	100	100	90	100	100	100	100	100		
O=S(=O)(CCCCCl)Oc1ccccc1Oc1ncc(Cl)cn1 [Example I-15]	100	100	100		100	100	100	100		90	80	100	100	90				
CCS(=O)(=O)Oc1ccccc1Oc1ncc(Cl)cn1 [Example I-16]		90	100		90	90	100	100								90		
Cc1cccc(Oc2ncc(Cl)cn2)c1OS(=O)(=O)CCCC(F)(F)F [Example I-28, 2-[(5-Chloropyrimidin-2-yl)oxy]-6-methylphenyl 4,4,4-trifluorobutane-1-sulfonate]		100	100	90	90	90	100	100								90		
O=S(=O)(CCCC(F)(F)F)Oc1c(Br)cccc1Oc1ncc(Cl)cn1 [Example I-30]	90	90	100			100	100	100								90		
O=S(=O)(CCC(F)(F)F)Oc1c(Br)cccc1Oc1ncc(Cl)cn1 [Example I-31]	90	100	100		90	100	100	100								90		
O=S(=O)(CCCC(F)(F)F)Oc1c(Cl)cccc1Oc1ncc(Cl)cn1 [Example I-39]			90	90	90	90	90	90	90	100	100	100	100	90		90	100	100
O=S(=O)(CCC(F)(F)F)Oc1c(F)cccc1Oc1ncc(Br)cn1 [Example I-40]				90	90				100	100	100	100	100	100	90	90	100	100
O=S(=O)(CCCC(F)(F)F)Oc1c(F)cccc1Oc1ncc(F)cn1 [Example I-42]	100	100	100			100	100	100	100	100	100	100	100	100			100	100
Cc1cccc(Oc2ncc(F)cn2)c1OS(=O)(=O)CCCC(F)(F)F [Example I-46]		100	100			90	100	100	90	100	90	100	90	80				100
O=S(=O)(CCC(F)(F)F)Oc1c(F)cccc1Oc1ncc(F)cn1 [Example I-47]	90	100	100			100	100	100	100	100	100	100	100	90			100	100
O=S(=O)(CCC(F)(F)F)Oc1c(F)cccc1Oc1ncc(Cl)cn1 [Example I-48]	90	90	90	90	90	90	90	90	100	100	100	100	100	100	90	90	100	100
